This assay concerns the target T1, Recombinant Human ENPP-2/Autotaxin (Homo sapiens, UniProt Q13822).
T1 construct: purchased R&D systems 5255-EN
The assay can be described thus: LysoPLD activity measurement (autotaxin enzyme inhibition, choline release, TOOS reagent). The assay is classed as biochemical. To be noted: LysoPLD inhibitory activity; substrate 14:0 LysoPC; absorbance at 555 nm. Put shortly:
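Enzyme and compound were preincubated for 30 min before adding 14:0 LysoPC substrate, diluted to 300 μM, for 90 minutes at 37° C. The choline product was quantified colorimetrically with TOOS reagent. Wells without compound held 1% DMSO.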
As for `CN(C)c1ccc(-n2c(=O)n(C3(c4cccc(C(=O)O)c4)CC3)c3ncc(Cl)cc32)cc1` [Example 221, 3-(1-(6-chloro-1-(4-(dimethylamino)phenyl)-2-oxo-1,2-dihydro-3H-imidazo[4,5-b]pyridin-3-yl)cyclopropyl)benzoic acid], the concentration for half-maximal inhibition (IC50) was less than 10 nM.
Under `O=C(O)c1cccc(C2(n3c(=O)n(-c4ccc(N5CCOCC5)cc4)c4cc(Cl)cnc43)CC2)c1` [Example 222, 3-(1-(6-chloro-1-(4-morpholinophenyl)-2-oxo-1,2-dihydro-3H-imidazo[4,5-b]pyridin-3-yl)cyclopropyl)benzoic acid] stands less than 10 nM; under `CN(C)C(=O)c1ccc(-n2c(=O)n(C3(c4cccc(C(=O)O)c4)CC3)c3ncc(Cl)cc32)cc1` [Example 223, 3-(1-(6-chloro-1-(4-(dimethylcarbamoyl)phenyl)-2-oxo-1,2-dihydro-3H-imidazo[4,5-b]pyridin-3-yl)cyclopropyl)benzoic acid], less than 10 nM; under `O=C(O)c1cccc(C2(n3c(=O)n(-c4ccc(C(=O)N5CC(O)C5)cc4)c4cc(Cl)cnc43)CC2)c1` [Example 224, 3-(1-(6-chloro-1-(4-(3-hydroxyazetidine-1-carbonyl)phenyl)-2-oxo-1,2-dihydro-3H-imidazo[4,5-b]pyridin-3-yl)cyclopropyl)benzoic acid], less than 10 nM.
Regarding `O=C(O)c1cccc(C2(n3c(=O)n(-c4ccc(C(=O)N5CC6(CCOCC6)C5)cc4)c4cc(Cl)cnc43)CC2)c1` [Example 225, 3-(1-(1-(4-(7-oxa-2-azaspiro[3.5]nonane-2-carbonyl)phenyl)-6-chloro-2-oxo-1,2-dihydro-3H-imidazo[4,5-b]pyridin-3-yl)cyclopropyl)benzoic acid], the half-maximal inhibitory concentration (IC50) is less than 10 nM.
Regarding `CN(C)C(=O)Cc1ccc(-n2c(=O)n(C3(c4cccc(C(=O)O)c4)CC3)c3ncc(Cl)cc32)cc1` [Example 226, 3-(1-(6-chloro-1-(4-(2-(dimethylamino)-2-oxoethyl)phenyl)-2-oxo-1,2-dihydro-3H-imidazo[4,5-b]pyridin-3-yl)cyclopropyl)benzoic acid], the half-maximal inhibitory concentration (IC50) lay in the range of 10 to 100 nM.
To `CS(=O)(=O)c1ccc(-n2c(=O)n(C3(c4cccc(C(=O)O)c4)CC3)c3ncc(Cl)cc32)cc1` [Example 227, 3-(1-(6-chloro-1-(4-(methylsulfonyl)phenyl)-2-oxo-1,2-dihydro-3H-imidazo[4,5-b]pyridin-3-yl)cyclopropyl)benzoic acid] belongs 10 to 100 nM.
As for `O=C(O)c1cccc(C2(n3c(=O)n(-c4ccc(C5CCOCC5)cc4)c4cc(Cl)cnc43)CC2)c1F` [Example 228, 3-(1-(6-chloro-2-oxo-1-(4-(tetrahydro-2H-pyran-4-yl)phenyl)-1,2-dihydro-3H-imidazo[4,5-b]pyridin-3-yl)cyclopropyl)-2-fluorobenzoic acid], the IC50 was 10 to 100 nM.
In the case of `CN(C)c1ccc(-n2c(=O)n(C3(c4cccc(C(=O)O)c4F)CC3)c3ncc(Cl)cc32)cc1` [Example 229, 3-(1-(6-chloro-1-(4-(dimethylamino)phenyl)-2-oxo-1,2-dihydro-3H-imidazo[4,5-b]pyridin-3-yl)cyclopropyl)-2-fluorobenzoic acid], the IC50 was less than 10 nM.
Turning to `O=C(O)c1cccc(C2(n3c(=O)n(-c4ccc(N5CCOCC5)cc4)c4cc(Cl)cnc43)CC2)c1F` [Example 230], the concentration for half-maximal inhibition (IC50) is 10 to 100 nM.
For the molecule `O=C(O)c1cccc(C2(n3c(=O)n(-c4ccc(C(=O)N5CCCC5)cc4)c4cc(Cl)cnc43)CC2)c1F` [Example 231, 3-(1-(6-chloro-2-oxo-1-(4-(pyrrolidine-1-carbonyl)phenyl)-1,2-dihydro-3H-imidazo[4,5-b]pyridin-3-yl)cyclopropyl)-2-fluorobenzoic acid], the 50% inhibitory concentration (IC50) was less than 10 nM.
Under `O=C(O)c1cccc(C2(n3c(=O)n(-c4ccc(C(=O)N5CC(O)C5)cc4)c4cc(Cl)cnc43)CC2)c1F` [Example 232, 3-(1-(6-chloro-1-(4-(3-hydroxyazetidine-1-carbonyl)phenyl)-2-oxo-1,2-dihydro-3H-imidazo[4,5-b]pyridin-3-yl)cyclopropyl)-2-fluorobenzoic acid] stands less than 10 nM; under `O=C(O)c1cccc(C2(n3c(=O)n(-c4ccc(C(=O)N5CC6(COC6)C5)cc4)c4cc(Cl)cnc43)CC2)c1F` [Example 233, 3-(1-(1-(4-(2-oxa-6-azaspiro[3.3]heptane-6-carbonyl)phenyl)-6-chloro-2-oxo-1,2-dihydro-3H-imidazo[4,5-b]pyridin-3-yl)cyclopropyl)-2-fluorobenzoic acid], 10 to 100 nM; under `CCC(=O)N1CCC(c2ccc(-n3c(=O)n(C4(c5cccc(C(=O)O)c5)CC4)c4ccc(Cl)cc43)cc2)CC1` [Example 234, 3-(1-(5-chloro-2-oxo-3-(4-(1-propionylpiperidin-4-yl)phenyl)-2,3-dihydro-1H-benzo[d]imidazol-1-yl)cyclopropyl)benzoic acid], less than 10 nM.
For `CCC(=O)N1CCC(c2ccc(-n3c(=O)n(C4(c5cc(F)cc(C(=O)O)c5)CC4)c4ccc(Cl)cc43)cc2)CC1` [Example 235, 3-(1-(5-chloro-2-oxo-3-(4-(1-propionylpiperidin-4-yl)phenyl)-2,3-dihydro-1H-benzo[d]imidazol-1-yl)cyclopropyl)-5-fluorobenzoic acid], the half-maximal inhibitory concentration (IC50) was less than 10 nM.
Under `O=C(O)c1cccc(C2(n3c(=O)n(-c4ccc(CN5CCCC5=O)cc4)c4cc(Cl)ccc43)CC2)c1` [Example 236, 3-(1-(5-chloro-2-oxo-3-(4-((2-oxopyrrolidin-1-yl)methyl)phenyl)-2,3-dihydro-1H-benzo[d]imidazol-1-yl)cyclopropyl)benzoic acid] stands less than 10 nM.
For the molecule `O=C(O)c1cccc(C2(n3c(=O)n(-c4ccc(Cn5cnc(C(F)(F)F)c5)cc4)c4cc(Cl)ccc43)CC2)c1` [Example 237, 3-(1-(5-chloro-2-oxo-3-(4-((4-(trifluoromethyl)-1H-imidazol-1-yl)methyl)phenyl)-2,3-dihydro-1H-benzo[d]imidazol-1-yl)cyclopropyl)benzoic acid], the IC50 was in the range of 10 to 100 nM.
Turning to `O=C(O)c1cccc(C2(n3c(=O)n(-c4ccc(C5(CO)CC5)cc4)c4cc(Cl)ccc43)CC2)c1` [Example 238, 3-(1-(5-chloro-3-(4-(1-(hydroxymethyl)cyclopropyl)phenyl)-2-oxo-2,3-dihydro-1H-benzo[d]imidazol-1-yl)cyclopropyl)benzoic acid], the IC50 is less than 10 nM.
As for `O=C(O)c1cccc(C2(n3c(=O)n(-c4ccc(C5(CO)CCC5)cc4)c4cc(Cl)ccc43)CC2)c1` [Example 239, 3-(1-(5-chloro-3-(4-(1-(hydroxymethyl)cyclobutyl)phenyl)-2-oxo-2,3-dihydro-1H-benzo[d]imidazol-1-yl)cyclopropyl)benzoic acid], the IC50 was less than 10 nM.
Turning to `O=C(O)c1cccc(C2(n3c(=O)n(-c4ccc(CC5COC5)cc4)c4cc(Cl)ccc43)CC2)c1` [Example 240, 3-(1-(5-chloro-3-(4-(oxetan-3-ylmethyl)phenyl)-2-oxo-2,3-dihydro-1H-benzo[d]imidazol-1-yl)cyclopropyl)benzoic acid], the 50% inhibitory concentration (IC50) is less than 10 nM.
To `CN1CCN(Cc2ccc(-n3c(=O)n(C4(c5cccc(C(=O)O)c5)CC4)c4ccc(Cl)cc43)cc2)C1=O` [Example 241, 3-(1-(5-chloro-3-(4-((3-methyl-2-oxoimidazolin-1-yl)methyl)phenyl)-2-oxo-2,3-dihydro-1H-benzo[d]imidazol-1-yl)cyclopropyl)benzoic acid] belongs less than 10 nM; to `CC1(C)COC(=O)N1c1ccc(-n2c(=O)n(C3(c4cccc(C(=O)O)c4)CC3)c3ccc(Cl)cc32)cc1` [Example 242, 3-(1-(5-chloro-3-(4-(4,4-dimethyl-2-oxooxazolidin-3-yl)phenyl)-2-oxo-2,3-dihydro-1H-benzo[d]imidazol-1-yl)cyclopropyl)benzoic acid], less than 10 nM.
As for `O=C(O)c1cccc(C2(n3c(=O)n(-c4ccc(N5C(=O)OCC56CC6)cc4)c4cc(Cl)ccc43)CC2)c1` [Example 243, 3-(1-(5-chloro-2-oxo-3-(4-(5-oxo-6-oxa-4-azaspiro[2.4]heptan-4-yl)phenyl)-2,3-dihydro-1H-benzo[d]imidazol-1-yl)cyclopropyl)benzoic acid], the half-maximal inhibitory concentration (IC50) was less than 10 nM.
Consider `O=C(O)c1cccc(C2(n3c(=O)n(-c4ccc(Cn5ccc(C(F)(F)F)n5)cc4)c4cc(Cl)ccc43)CC2)c1` [Example 244, 3-(1-(5-chloro-2-oxo-3-(4-((3-(trifluoromethyl)-1H-pyrazol-1-yl)methyl)phenyl)-2,3-dihydro-1H-benzo[d]imidazol-1-yl)cyclopropyl)benzoic acid], for which the IC50 is 100 to 1000 nM.
As to `CN1Cc2cc(-n3c(=O)n(C4(c5cccc(C(=O)O)c5)CC4)c4ccc(Cl)cc43)ccc2C1=O` [Example 245, 3-(1-(5-chloro-3-(2-methyl-1-oxoisoindolin-5-yl)-2-oxo-2,3-dihydro-1H-benzo[d]imidazol-1-yl)cyclopropyl)benzoic acid], the half-maximal inhibitory concentration (IC50) was less than 10 nM.
Take `CC(C)(O)c1ccc(-n2c(=O)n(C3(c4cccc(C(=O)O)c4)CC3)c3ccc(Cl)cc32)cc1` [Example 246, 3-(1-(5-chloro-3-(4-(2-hydroxypropane-2-yl)phenyl)-2-oxo-2,3-dihydro-1H-benzo[d]imidazol-1-yl)cyclopropyl)benzoic acid]: the 50% inhibitory concentration (IC50) is less than 10 nM.
`CC1(c2ccc(-n3c(=O)n(C4(c5cccc(C(=O)O)c5)CC4)c4ccc(Cl)cc43)cc2)COC1` [Example 247, 3-(1-(5-chloro-3-(4-(3-methyloxetan-3-yl)phenyl)-2-oxo-2,3-dihydro-1H-benzo[d]imidazol-1-yl)cyclopropyl)benzoic acid]: the 50% inhibitory concentration (IC50) was less than 10 nM.
For the molecule `O=C(O)c1cccc(C2(n3c(=O)n(-c4ccc(C5CCOC5)cc4)c4cc(Cl)ccc43)CC2)c1` (stereo not shown) [Example 248, 3-(1-(5-chloro-2-oxo-3-(4-(tetrahydrofuran-3-yl)phenyl)-2,3-dihydro-1H-benzo[d]imidazol-1-yl)cyclopropyl)benzoic acid], the half-inhibitory concentration (IC50) was less than 10 nM.

Broadly, the IC50 is the point on the concentration scale where inhibition reaches its midpoint.

These data come from US20260265265A1, “NOVEL BENZIMIDAZOLONE DERIVATIVE COMPOUND AS AUTOTAXIN INHIBITOR” (LG CHEM, LTD., priority 2023, published 2026).
